# Data reported in patent US20110183892A1 (priority 2007, published 2011).
# Where two headings read alike, the source gives them in different places.
# Legend:
# [1] = tested on: M1 satellite virus dsRNA genome; assay: dsRNA extraction and TAE-agarose gel of Killer yeast cells; assay type: cell-based; settings: gentamicin treated Killer− cells, ~10-times more RNA loaded than control
# HIV-1 RT = HIV-1 RT (Human immunodeficiency virus type 1 group M subtype B, UniProt P04585); assay: Control experiments on HIV-1 RT activity
# HIV-1 strain LAI = assay: Limit-dilution titer of infectious virus with p24 antigen capture assay; assay type: cell-based; settings: Jurkat E6-1, 250 μg/ml, days 4-10 post infection
# Method: (A) Jurkat E6-1 cells were grown in RPMI-1640 media supplemented with 10% FBS. Cells were infected with HIV-1 (LAI) at an MOI of 0.01 in media containing gentamicin at 0, 50, 250, or 500 μg/ml. Infected or mock infected cells were maintained in the above media containing the corresponding concentration of gentamicin. Clarified viral supernatant was assayed for RT activity on days 2, 4, 6, 8, and 10 post infection. […] Results are from an average of 3 experiments with error bars corresponding to standard deviation values. (B) Clarified viral supernatants from days 4, 6, 8, and 10 above were used to perform limit-dilution assays in order to determine the level of infectious virus produced in untreated and gentamicin treated cells. A p24 antigen capture assay was used to detect virus. Results are reported as TCID50/ml vs. day post infection. The antigen capture assay was repeated with similar results while the RT activity assay was repeated twice with similar results.
# Cells and viruses. Jurkat E6-1 cells (obtained through the ATCC) were cultured in RPMI-1640 supplemented with 10% fetal bovine serum at 37° C. and 5% CO2 according to the ATCC data sheet. HIV-1 strain LAI was obtained through the NIH AIDS Research and Reference Reagent Program.
# HIV infection of Jurkat cells. All experiments were performed with Jurkat cells in 24-well plates and in duplicate. […]
# HIV-1 −1 PRF signal = assay type: cell-based, human; settings: for stimulation of HIV-1 directed −1 PRF: 5-500 μg/ml; for dose dependence of HIV-1 mediated −1 PRF: Example 2
# Jurkat E6-1 cells = settings: Jurkat E6-1, 500 μg/ml
# [2] = tested on: SARS-CoV frameshift signal; assay type: cell-based, human
# [3] = tested on: endogenous yeast "Killer" virus; assay: Yeast Killer virus maintenance assay after serial passage; assay type: cell-based; settings: serial passage every 24 h for eight days
# [4] = HeLa cells, 5, 25, 50, 250 and 500 ug/ml
# [5] = Jurkat cells, 5, 25, 50, 250 and 500 ug/ml
substance,measurement,setting,value
gentamicin,presence of M1 dsRNA genome,[1],no longer present
same,effect on HIV-1 RT activity,HIV-1 RT,did not affect HIV-1 RT activity
same,infectious virus in cell-free supernatant,HIV-1 strain LAI,no infectious virus was made
same,HIV-1 directed −1 PRF at the concentration normally used in cell culture,"HIV-1 −1 PRF signal; HeLa CD4+ and Jurkat cells, 50 μg/ml",increased −1 PRF was observed
same,stimulation of HIV-1 directed −1 PRF,HIV-1 −1 PRF signal; HeLa CD4+ cells,about 40%
same,stimulation of HIV-1 directed −1 PRF,"HIV-1 −1 PRF signal; HeLa CD4+ cells, listed as Gentamicin",up to 40%
same,dose dependence of HIV-1 mediated −1 PRF,HIV-1 −1 PRF signal; [4],dose-dependently increased
same,dose dependence of HIV-1 mediated −1 PRF,HIV-1 −1 PRF signal; [5],dose-dependently increased
same,stimulation of HIV-1 directed −1 PRF,HIV-1 −1 PRF signal; Jurkat cells,about 40%
same,stimulation of HIV-1 directed −1 PRF,"HIV-1 −1 PRF signal; Jurkat cells, listed as Gentamicin",up to 40%
same,cell toxicity,Jurkat E6-1 cells,Significant cell toxicity
same,cell toxicity,Jurkat E6-1 cells; listed as Gentamicin,significant cell toxicity
same,dose dependence of SARS-CoV mediated −1 PRF,[2]; [4],dose-dependently increased
same,dose dependence of SARS-CoV mediated −1 PRF,[2]; [5],dose-dependently increased
same,Killer phenotype maintenance,[3]; 50 μg/ml,rapid loss of the Killer phenotype
same,Killer phenotype maintenance,[3]; 500 μg/ml,rapid loss of the Killer phenotype
